Like-named read-outs stand apart in the source and are kept apart here.
Assays:
E. coli mL308 225 = test: In Vitro Anti-Bacterial Activity Assay (MIC), gram negative; format: cell-based; conditions: for MIC: Escherichia coli, ML308225, 18 h
S. aureus RN450 = test: In Vitro Anti-Bacterial Activity Assay (MIC), gram positive; format: cell-based; conditions: for MIC: Staphylococcus aureus, RN450, 18 h
[1] = gram negative bacteria, read-out: Antibiotic Activity Gram − (MIC)
[2] = gram positive bacteria, read-out: Antibiotic Activity Gram + (MIC)
[3] = MIC class, Table 3, read-out: Antibiotic Activity Gram −
[4] = MIC class, Table 3, read-out: Antibiotic Activity Gram +

| SMILES | MIC (E. coli mL308 225; [1]) | MIC (S. aureus RN450; [2]) | MIC (E. coli mL308 225; [3]) | MIC (S. aureus RN450; [4]) | further results |
| --- | --- | --- | --- | --- | --- |
| Cc1cnc(N)n1Cc1cc(N(C)C)c2c(c1O)C(=O)C1=C(O)[C@]3(O)C(=O)C(C(N)=O)=C(O)[C@@H](N(C)C)[C@@H]3C[C@@H]1C2 [drawing 3712] |  |  |  |  | Antibiotic Activity Gram − (MIC) (E. coli mL308 225; gram negative bacteria): * (compounds with an MIC of greater than 4 μg/ml are indicated with *); Antibiotic Activity Gram + (MIC) (S. aureus RN450; gram positive bacteria): * (compounds with an MIC of greater than 4 μg/ml are indicated with *) |
| CC(=O)NCc1ccc(O)c2c1C[C@H]1C[C@H]3[C@H](N(C)C)C(O)=C(C(N)=O)C(=O)[C@@]3(O)C(O)=C1C2=O | > 4 µg/mL | < 4 µg/mL |  |  |  |
| CN(C)c1cc(C#CC(=O)O)c(O)c2c1C[C@H]1C[C@H]3[C@H](N(C)C)C(O)=C(C(N)=O)C(=O)[C@@]3(O)C(O)=C1C2=O | > 4 µg/mL | > 4 µg/mL |  |  |  |
| Cc1cc(C)cc(-c2cc(N(C)C)c3c(c2O)C(=O)C2=C(O)[C@]4(O)C(=O)C(C(N)=O)=C(O)[C@@H](N(C)C)[C@@H]4C[C@@H]2C3)c1 |  |  |  |  | MIC (E. coli mL308 225; MIC class, Table 3 (Continued), read-out: Gram− activity): < 4 µg/mL; MIC (S. aureus RN450; MIC class, Table 3 (Continued), read-out: Gram+ activity): < 4 µg/mL |
| CN(C)c1cc(CC2=COc3ccccc3C2)c(O)c2c1C[C@H]1C[C@H]3[C@H](N(C)C)C(O)=C(C(N)=O)C(=O)[C@@]3(O)C(O)=C1C2=O | > 4 µg/mL | < 4 µg/mL |  |  |  |
| C[C@H]1c2ccc(-c3ccc(C=O)c4ccccc34)c(O)c2C(=O)C2=C(O)[C@]3(O)C(=O)C(C(N)=O)=C(O)[C@@H](N(C)C)[C@@H]3[C@@H](O)[C@@H]21 | < 4 µg/mL | < 4 µg/mL |  |  |  |
| CN(C)c1cc(CNCc2ccc(C(=O)O)cc2)c(O)c2c1C[C@H]1C[C@H]3[C@H](N(C)C)C(O)=C(C(N)=O)C(=O)[C@@]3(O)C(O)=C1C2=O | > 4 µg/mL | > 4 µg/mL |  |  |  |
| COC(=O)c1cc(N)cc(-c2ccc(O)c3c2C[C@H]2C[C@H]4[C@H](N(C)C)C(O)=C(C(N)=O)C(=O)[C@@]4(O)C(O)=C2C3=O)c1 [HE] |  |  | > 4 µg/mL | < 4 µg/mL |  |
| CN(C)[C@@H]1C(O)=C(C(N)=O)C(=O)[C@@]2(O)C(O)=C3C(=O)c4c(ccc(NC(=O)N5CCOCC5)c4O)C[C@H]3C[C@@H]12 [IL] |  |  | > 4 µg/mL | > 4 µg/mL |  |
| COC(=O)C#Cc1cc(N(C)C)c2c(c1O)C(=O)C1=C(O)[C@]3(O)C(=O)C(C(N)=O)=C(O)C(N(C)C)[C@@H]3C[C@@H]1C2 (stereo partly drawn) [CY] |  |  | > 4 µg/mL | < 4 µg/mL |  |
| CCCCCC(=O)O[C@H]1[C@H]2C(=C(O)[C@]3(O)C(=O)C(C(N)=O)=C(O)[C@@H](N(C)C)[C@H]13)C(=O)c1c(O)cccc1[C@@H]2C [L] |  |  | > 4 µg/mL | < 4 µg/mL |  |
| CN(C)[C@@H]1C(O)=C(C(N)=O)C(=O)[C@@]2(O)C(O)=C3C(=O)c4c(O)ccc(CNC(=O)c5ccccn5)c4C[C@H]3C[C@@H]12 | > 4 µg/mL | < 4 µg/mL |  |  |  |
| C[C@H]1c2ccc(NC3CCN(C)CC3)c(O)c2C(=O)C2=C(O)[C@]3(O)C(=O)C(C(N)=O)=C(O)[C@@H](N(C)C)[C@@H]3[C@@H](O)[C@@H]21 [JF] |  |  | < 4 µg/mL | < 4 µg/mL |  |
| CN(C)[C@@H]1C(O)=C(C(N)=O)C(=O)[C@@]2(O)C(O)=C3C(=O)c4c(O)ccc(-c5ccc(C(=O)Cl)c6ccccc56)c4C[C@H]3C[C@@H]12 | > 4 µg/mL | < 4 µg/mL |  |  |  |
| CN(C)[C@@H]1C(O)=C(C(N)=O)C(=O)[C@@]2(O)C(O)=C3C(=O)c4c(ccc(NC(=O)CCCC(=O)O)c4O)C[C@H]3C[C@@H]12 [HX] |  |  | > 4 µg/mL | > 4 µg/mL |  |
| CN(C)c1cc(-c2ccc(CN3CCN(CCO)CC3)o2)c(O)c2c1C[C@H]1C[C@H]3[C@H](N(C)C)C(O)=C(C(N)=O)C(=O)[C@@]3(O)C(O)=C1C2=O | > 4 µg/mL | < 4 µg/mL |  |  |  |
| CCN(CC)Cc1ccc(O)c2c1C[C@H]1C[C@H]3[C@@H](N(C)C)C(O)=C(C(N)=O)C(=O)[C@@]3(O)C(O)=C1C2=O [KI] |  |  | < 4 µg/mL | < 4 µg/mL |  |
| CN(C)[C@@H]1C(O)=C(C(N)=O)C(=O)[C@@]2(O)C(O)=C3C(=O)c4c(O)ccc(-c5ccncc5)c4C[C@H]3C[C@@H]12 | < 4 µg/mL | < 4 µg/mL |  |  |  |
